Results as given in patent publication US8415156B2, “Recombinant laminin-521” (Biolamina AB, priority 2010, dated 2013).

Test system: Akt and MEK1
Test: Western blot of pathway inhibitor treated cells
Type: cell-based, human
Details: cells collected one hour after plating on LN-521, vs DMSO control
From the text: InSolutionTM LY 294002 (a specific […]), InSolutionTM Wortmannin (a specific PI3K inhibitor), and InSolutionTM 98059 (a specific MEK1/Erk inhibitor) were purchased from Calbiochem. Antibodies to phospho-Akt (#4060), total-Akt (#9272), phospho-Erk (#9101), and total-Erk (#9102) were obtained from Cell Signaling Technology. PathScan Phospho-Akt1 sandwich ELISA kit (#7160), PathScan total Akt1 sandwich ELISA kit (#7170), PathScan Phospho-Akt2 sandwich ELISA kit (#7048), and PathScan total Akt2 sandwich ELISA kit (#7046) were also purchased from Cell Signaling Technology. Antibodies to Calnexin (#ab10286) were obtained from Abcam. Function blocking antibodies to various integrin subunits, mouse isotype antibodies, and α-dystroglycan were purchased from Millipore. Since function blocking antibodies to αV (MAB1980) and α6 (MAB1378) were presented in a solution with sodium azide, before the inhibition of survival experiment all the antibodies to alpha integrin subunits were dialyzed thrice against O3 medium for 2 hours each time. Antibodies to Lutheran receptor and α-fetoprotein, as well as rat isotype control antibodies were obtained from R&D Systems. Antibodies to Oct4, Nanog, SSEA-4, smooth muscle actin and MAP-2 were purchased from Millipore. […] For the densitometry analysis the films were scanned at 2,400 dpi and analyzed by the […]5500 program (1D-Multi Line densitometry mode). […]

## COc1cccc(-c2cc(=O)c3ccccc3o2)c1N [PD 98059]
  efficacy of inhibitor treatment by western blot: confirmed
